{"source": "paper PMC10507085", "about": "“Pharmacological inhibition of TBK1/IKKε blunts immunopathology in a murine model of SARS-CoV-2 infection” (Nature Communications, 2023)", "assay_in_all_cases": "biochemical", "parameters_in_all_cases": "KINOMEscan competition binding, DNA-tagged kinase against immobilised ligand, qPCR read-out", "settings_in_all_cases": "read-out: Percent Control", "key": {"AURKA": {"target": "AURKA (Homo sapiens, UniProt O14965)", "experimental": "(§1) The KINOMEscan^TM kinase assays[65] were performed by Eurofins DiscoverX Corporation. For each kinase, the assay relies on the ability of the tested compound to compete against an immobilised ligand for binding to the DNA-tagged kinase. RT-qPCR is then used to measure the quantity of kinase molecules bound to the immobilised ligand, which is decreased if the tested compound competed with the kinase-ligand interaction. An 11-point 3-fold serial dilution of IDX compound was prepared in 100% DMSO at 100× final test concentration and subsequently diluted to 1× in the assay. […]"}, "CLK2": {"target": "CLK2 (Homo sapiens, UniProt P49760)", "experimental": "as §1"}, "ACVR2B": {"target": "ACVR2B (Homo sapiens, UniProt Q13705)", "sequence (Q13705 whole entry)": "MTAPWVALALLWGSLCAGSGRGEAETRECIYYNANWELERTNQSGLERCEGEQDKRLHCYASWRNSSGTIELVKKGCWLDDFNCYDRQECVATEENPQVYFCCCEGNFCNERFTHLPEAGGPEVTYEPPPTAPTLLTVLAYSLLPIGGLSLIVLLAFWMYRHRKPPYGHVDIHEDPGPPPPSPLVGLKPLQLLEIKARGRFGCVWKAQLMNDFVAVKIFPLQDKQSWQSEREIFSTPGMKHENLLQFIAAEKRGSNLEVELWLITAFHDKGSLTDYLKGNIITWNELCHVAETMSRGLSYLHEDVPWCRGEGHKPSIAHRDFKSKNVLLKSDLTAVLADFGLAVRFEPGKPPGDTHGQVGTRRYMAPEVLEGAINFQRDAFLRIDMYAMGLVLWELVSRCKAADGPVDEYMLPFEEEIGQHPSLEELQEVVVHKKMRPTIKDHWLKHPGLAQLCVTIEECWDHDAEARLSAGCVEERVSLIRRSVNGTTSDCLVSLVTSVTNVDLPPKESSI", "experimental": "as §1"}, "INSRR": {"target": "INSRR (Homo sapiens, UniProt P14616)", "sequence (P14616 whole entry)": "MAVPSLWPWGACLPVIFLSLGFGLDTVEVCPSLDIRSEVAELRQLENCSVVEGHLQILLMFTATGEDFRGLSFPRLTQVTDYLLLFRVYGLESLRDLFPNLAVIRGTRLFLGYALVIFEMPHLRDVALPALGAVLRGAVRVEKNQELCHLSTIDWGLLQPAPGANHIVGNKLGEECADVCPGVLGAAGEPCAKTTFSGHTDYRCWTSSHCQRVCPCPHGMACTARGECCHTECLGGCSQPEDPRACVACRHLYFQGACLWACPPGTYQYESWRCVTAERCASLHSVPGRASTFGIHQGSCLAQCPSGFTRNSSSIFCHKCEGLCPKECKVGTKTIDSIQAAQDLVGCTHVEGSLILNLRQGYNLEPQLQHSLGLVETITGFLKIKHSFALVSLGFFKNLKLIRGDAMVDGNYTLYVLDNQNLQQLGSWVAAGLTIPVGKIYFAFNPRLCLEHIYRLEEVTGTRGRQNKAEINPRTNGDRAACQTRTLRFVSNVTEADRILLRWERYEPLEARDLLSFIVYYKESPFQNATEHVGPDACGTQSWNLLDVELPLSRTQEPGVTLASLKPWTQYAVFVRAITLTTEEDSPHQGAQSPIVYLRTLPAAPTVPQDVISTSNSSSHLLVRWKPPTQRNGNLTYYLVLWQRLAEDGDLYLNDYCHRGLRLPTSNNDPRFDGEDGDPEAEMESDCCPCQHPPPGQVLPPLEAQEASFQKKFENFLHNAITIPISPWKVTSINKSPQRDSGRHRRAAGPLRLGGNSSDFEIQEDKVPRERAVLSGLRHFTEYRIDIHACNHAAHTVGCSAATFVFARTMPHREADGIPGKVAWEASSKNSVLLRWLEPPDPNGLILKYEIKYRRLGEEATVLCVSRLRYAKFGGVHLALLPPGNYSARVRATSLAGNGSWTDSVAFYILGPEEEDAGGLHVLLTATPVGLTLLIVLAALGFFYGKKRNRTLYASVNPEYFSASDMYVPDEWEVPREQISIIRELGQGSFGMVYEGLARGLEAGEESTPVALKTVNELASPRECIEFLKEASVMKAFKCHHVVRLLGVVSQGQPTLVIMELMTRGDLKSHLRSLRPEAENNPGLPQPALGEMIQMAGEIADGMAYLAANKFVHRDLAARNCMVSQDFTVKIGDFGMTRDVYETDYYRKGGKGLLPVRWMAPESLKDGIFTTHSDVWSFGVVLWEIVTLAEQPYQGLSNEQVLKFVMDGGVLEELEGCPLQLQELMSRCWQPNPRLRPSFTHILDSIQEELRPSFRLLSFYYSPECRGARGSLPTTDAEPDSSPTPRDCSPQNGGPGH", "experimental": "as §1"}, "KIT": {"target": "KIT (Homo sapiens, UniProt P10721)", "experimental": "as §1"}, "RIOK1": {"target": "RIOK1 (Homo sapiens, UniProt Q9BRS2)", "experimental": "as §1"}, "ITK": {"target": "ITK (Homo sapiens, UniProt Q08881)", "experimental": "as §1"}, "MAPK13": {"target": "MAPK13 (Homo sapiens, UniProt O15264)", "experimental": "as §1"}, "RIPK4": {"target": "RIPK4 (Homo sapiens, UniProt P57078)", "experimental": "as §1"}, "MAPK7": {"target": "MAPK7 (Homo sapiens, UniProt Q13164)", "experimental": "as §1"}, "WEE1": {"target": "WEE1 (Homo sapiens, UniProt P30291)", "experimental": "as §1"}, "CDC2L2": {"target": "T1, CDC2L2 (Homo sapiens, UniProt Q9UQ88)", "T1 construct": "gene CDK11A", "experimental": "as §1"}, "PLK4": {"target": "PLK4 (Homo sapiens, UniProt O00444)", "experimental": "as §1"}, "ACVR2A": {"target": "ACVR2A (Homo sapiens, UniProt P27037)", "experimental": "as §1"}, "EPHA1": {"target": "EPHA1 (Homo sapiens, UniProt P21709)", "sequence (P21709 whole entry)": "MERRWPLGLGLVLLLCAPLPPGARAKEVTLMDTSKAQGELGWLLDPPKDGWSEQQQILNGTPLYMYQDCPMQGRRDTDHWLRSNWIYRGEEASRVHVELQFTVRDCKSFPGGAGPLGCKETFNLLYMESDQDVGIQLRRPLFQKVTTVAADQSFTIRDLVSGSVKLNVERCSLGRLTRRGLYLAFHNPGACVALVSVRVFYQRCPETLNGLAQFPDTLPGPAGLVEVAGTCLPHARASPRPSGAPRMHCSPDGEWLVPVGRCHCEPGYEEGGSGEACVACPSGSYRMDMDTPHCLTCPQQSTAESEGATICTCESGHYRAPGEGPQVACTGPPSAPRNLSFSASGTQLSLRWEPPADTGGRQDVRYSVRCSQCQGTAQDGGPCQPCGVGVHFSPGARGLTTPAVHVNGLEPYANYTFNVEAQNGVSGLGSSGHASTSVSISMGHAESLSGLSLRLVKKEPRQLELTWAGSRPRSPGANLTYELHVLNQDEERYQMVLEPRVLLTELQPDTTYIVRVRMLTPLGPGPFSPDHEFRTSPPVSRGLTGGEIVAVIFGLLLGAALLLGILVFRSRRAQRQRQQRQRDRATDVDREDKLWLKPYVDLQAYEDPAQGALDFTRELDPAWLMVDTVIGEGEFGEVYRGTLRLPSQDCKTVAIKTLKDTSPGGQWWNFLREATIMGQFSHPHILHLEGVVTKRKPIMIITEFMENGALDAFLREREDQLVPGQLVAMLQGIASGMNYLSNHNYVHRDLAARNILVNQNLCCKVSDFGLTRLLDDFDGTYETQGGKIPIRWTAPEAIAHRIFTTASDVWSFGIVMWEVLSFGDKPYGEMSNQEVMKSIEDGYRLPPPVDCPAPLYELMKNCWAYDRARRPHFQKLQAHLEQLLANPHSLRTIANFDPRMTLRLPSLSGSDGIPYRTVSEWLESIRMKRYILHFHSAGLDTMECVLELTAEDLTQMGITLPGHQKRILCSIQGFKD", "experimental": "as §1"}, "BMPR1B": {"target": "BMPR1B (Homo sapiens, UniProt O00238)", "experimental": "as §1"}, "TRPM6": {"target": "TRPM6 (Homo sapiens, UniProt Q9BX84)", "sequence (Q9BX84 whole entry)": "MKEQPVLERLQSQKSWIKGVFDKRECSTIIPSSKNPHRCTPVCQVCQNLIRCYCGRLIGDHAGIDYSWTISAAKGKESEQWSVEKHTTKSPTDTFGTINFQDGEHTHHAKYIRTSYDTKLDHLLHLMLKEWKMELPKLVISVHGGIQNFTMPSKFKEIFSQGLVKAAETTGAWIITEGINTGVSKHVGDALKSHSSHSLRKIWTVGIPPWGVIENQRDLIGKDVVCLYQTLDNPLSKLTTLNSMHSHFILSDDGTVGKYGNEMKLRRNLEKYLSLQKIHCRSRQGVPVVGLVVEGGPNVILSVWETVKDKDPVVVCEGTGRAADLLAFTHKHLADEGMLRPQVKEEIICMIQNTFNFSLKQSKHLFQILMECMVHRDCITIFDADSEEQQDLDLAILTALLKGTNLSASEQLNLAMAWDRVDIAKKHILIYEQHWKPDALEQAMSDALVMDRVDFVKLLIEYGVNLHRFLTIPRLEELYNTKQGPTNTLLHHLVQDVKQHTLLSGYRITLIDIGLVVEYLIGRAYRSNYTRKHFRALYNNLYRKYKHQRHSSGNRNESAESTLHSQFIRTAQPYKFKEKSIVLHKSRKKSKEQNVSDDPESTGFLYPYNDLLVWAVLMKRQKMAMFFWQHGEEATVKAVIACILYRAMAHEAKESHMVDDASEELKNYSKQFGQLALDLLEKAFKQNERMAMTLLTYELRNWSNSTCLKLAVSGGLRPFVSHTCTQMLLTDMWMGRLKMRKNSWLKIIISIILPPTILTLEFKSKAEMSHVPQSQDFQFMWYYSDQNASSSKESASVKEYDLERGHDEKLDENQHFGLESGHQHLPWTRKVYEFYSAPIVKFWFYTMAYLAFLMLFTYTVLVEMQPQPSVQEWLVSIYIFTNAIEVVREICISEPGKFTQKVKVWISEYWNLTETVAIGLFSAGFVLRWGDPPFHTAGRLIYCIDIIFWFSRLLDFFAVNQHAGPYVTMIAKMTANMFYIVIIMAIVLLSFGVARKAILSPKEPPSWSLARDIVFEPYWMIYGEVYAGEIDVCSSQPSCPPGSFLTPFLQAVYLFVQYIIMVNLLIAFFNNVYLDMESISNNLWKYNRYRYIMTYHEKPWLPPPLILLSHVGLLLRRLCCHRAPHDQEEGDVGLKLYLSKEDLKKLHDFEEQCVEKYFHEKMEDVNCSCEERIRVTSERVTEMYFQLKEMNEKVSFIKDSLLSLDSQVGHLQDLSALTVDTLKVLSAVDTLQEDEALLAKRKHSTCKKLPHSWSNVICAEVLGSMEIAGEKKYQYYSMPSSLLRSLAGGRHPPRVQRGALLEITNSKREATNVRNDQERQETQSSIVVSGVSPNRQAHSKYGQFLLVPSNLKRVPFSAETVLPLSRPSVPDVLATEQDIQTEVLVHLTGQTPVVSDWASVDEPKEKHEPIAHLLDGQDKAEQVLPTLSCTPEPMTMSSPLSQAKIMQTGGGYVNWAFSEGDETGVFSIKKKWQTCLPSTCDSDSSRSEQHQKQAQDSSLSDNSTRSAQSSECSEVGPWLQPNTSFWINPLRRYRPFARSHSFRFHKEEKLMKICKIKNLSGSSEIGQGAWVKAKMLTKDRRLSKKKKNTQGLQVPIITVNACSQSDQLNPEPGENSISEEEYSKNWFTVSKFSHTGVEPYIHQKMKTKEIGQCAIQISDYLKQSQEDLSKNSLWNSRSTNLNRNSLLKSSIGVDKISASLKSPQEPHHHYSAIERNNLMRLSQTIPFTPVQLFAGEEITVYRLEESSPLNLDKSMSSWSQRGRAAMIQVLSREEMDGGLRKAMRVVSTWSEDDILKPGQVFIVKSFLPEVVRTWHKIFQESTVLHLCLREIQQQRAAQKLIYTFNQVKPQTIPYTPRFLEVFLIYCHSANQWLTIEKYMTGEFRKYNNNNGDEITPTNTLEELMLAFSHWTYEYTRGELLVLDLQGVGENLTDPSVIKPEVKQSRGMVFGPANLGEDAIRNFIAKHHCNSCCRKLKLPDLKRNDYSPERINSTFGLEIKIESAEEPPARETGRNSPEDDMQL", "experimental": "as §1"}, "ACVRL1": {"target": "ACVRL1 (Homo sapiens, UniProt P37023)", "experimental": "as §1"}, "GRK4": {"target": "GRK4 (Homo sapiens, UniProt P32298)", "experimental": "as §1"}, "BMX": {"target": "BMX (Homo sapiens, UniProt P51813)", "experimental": "as §1"}}}
{"smiles": "Oc1ccc(C2=Cc3ccc(O)cc3OC2)cc1", "note": "[compound 1, idronoxil]", "values": [{"measurement": "remaining binding at 10 µM", "setting": "AURKA", "result": 92, "unit": "%"}, {"measurement": "remaining binding at 10 µM", "setting": "CLK2", "result": 69, "unit": "%"}, {"measurement": "remaining binding at 10 µM", "setting": "ACVR2B", "result": 53, "unit": "%"}, {"measurement": "remaining binding at 10 µM", "setting": "INSRR", "result": 94, "unit": "%"}, {"measurement": "remaining binding at 10 µM", "setting": "KIT", "result": 19, "unit": "%"}, {"measurement": "remaining binding at 10 µM", "setting": "RIOK1", "result": 98, "unit": "%"}, {"measurement": "remaining binding at 10 µM", "setting": "ITK", "result": 97, "unit": "%"}, {"measurement": "remaining binding at 10 µM", "setting": "MAPK13", "result": 100, "unit": "%"}, {"measurement": "remaining binding at 10 µM", "setting": "RIPK4", "result": 73, "unit": "%"}, {"measurement": "remaining binding at 10 µM", "setting": "MAPK7", "result": 90, "unit": "%"}, {"measurement": "remaining binding at 10 µM", "setting": "WEE1", "result": 84, "unit": "%"}, {"measurement": "remaining binding at 10 µM", "setting": "CDC2L2", "result": 69, "unit": "%"}, {"measurement": "remaining binding at 10 µM", "setting": "PLK4", "result": 88, "unit": "%"}, {"measurement": "remaining binding at 10 µM", "setting": "ACVR2A", "result": 66, "unit": "%"}, {"measurement": "remaining binding at 10 µM", "setting": "EPHA1", "result": 69, "unit": "%"}, {"measurement": "remaining binding at 10 µM", "setting": "BMPR1B", "result": 66, "unit": "%"}, {"measurement": "remaining binding at 10 µM", "setting": "TRPM6", "result": 88, "unit": "%"}, {"measurement": "remaining binding at 10 µM", "setting": "ACVRL1", "result": 92, "unit": "%"}, {"measurement": "remaining binding at 10 µM", "setting": "GRK4", "result": 68, "unit": "%"}, {"measurement": "remaining binding at 10 µM", "setting": "BMX", "result": 75, "unit": "%"}]}
